US12560591B2, “Methods of treatment with CD8 T cell-mediated immune therapy” (Providence Health & Services—Oregon, priority 2019, dated 2026)

Experiments:
CT26 cells = test: Rechallenge of cured mice with CT26 cells; type: in vivo, mouse; settings: cured animals (RT/5-FU/LY3200882), rechallenge at day 73 post-implant, FIG. 6C-D
From the text: (§1) FIGS. 6A-6D are a series of panels showing generation of tumor-specific immune memory following tumor eradication with TGFβ inhibition with chemoradiation. […] The number of mice cured over the total number of mice in each group is indicated in the top right corner. One representative experiment is shown reflective of two independent experiments. Mice who eradicated their tumors were rechallenged with CT26 and 4T1 tumors. CT26 tumor cells were rechallenged on the opposite flank as from the original cured tumor. In FIG. 6D, 4T1 and CT26 tumor establishment and growth was followed for up to 60 days post re-challenge. The number of tumors rejected per total mice rechallenged in each tumor type is indicated in the top right portion of the graph. ***=p<0.001
(§2) In order to evaluate whether the improved efficacy of RT+5FU+LY (FIG. 1B) was due to the direct effect of ALK5 inhibition on CD8^+ T cells, LY treatment in ALK5^ΔCD8 mice was tested.

4T1 cell line = test: Rechallenge of cured mice with 4T1 cells; type: in vivo, mouse; settings: cured animals (RT/5-FU/LY3200882), 4T1 implanted simultaneously on opposite flank, FIG. 6C-D
From the text: as §1, §2

CT26 tumors = test: CT26 tumor model: ALK5 inhibitor with chemoradiation (RT+5FU), tumor growth and survival; type: in vivo, mouse; settings: FIG. 6B
Protocol: FIGS. 1A-1D are a series of panels showing that the TGFβR1 antagonist LY2157299 enhances chemo-radiation efficacy dependent on CD8α^+ cells in CT26 tumors. FIG. 1A is a treatment schema in the CT26 tumor model. Six to eight week old BALB/c mice were implanted subcutaneously in the left flank with 2×10^5 CT26 tumor cells. Seven days following implant, animals were randomized based on tumor size, and vehicle control or LY2157299 compound were administered by oral gavage twice daily every 12 hours at 150 mg/kg for 7 consecutive days. At day 14, some mice received five consecutive radiation treatments of 5 Gy targeted to tumor tissue along with 25 mg/kg injections of 5-fluorouracil (5FU) chemotherapy administered intraperitoneally on days 14, 16, and 18. LY treatment groups resumed BID oral dosing from days 21-27. Mean tumor growth (i) and survival (ii) were assessed three times per week up to 100 days or death (FIG. 1B). […] Arrows identify pSMAD2^+CD8^+ cells in vehicle mice. […] NS=not significant, *=p<0.05, **=p<0.01, ***=p<0.001.
as §1
Animal studies and cell culture: C57BL/6, BALB/c, CD8Cre, Lyz2Cre, and Foxp3-eGFP-CreERT2 mice were purchased from the Jackson Laboratories (Bar Harbor, Maine). ALK5flox/flox mice were a generous gift from Andrew Weinberg (Providence Cancer Center). All transgenic mice were on C57BL/6 background. CT26, MC38, 4T1 and MCA205-OVA tumor cells were grown in DMEM medium supplemented with 10% heat-inactivated fetal bovine serum and 1% penicillin-streptomycin to 60-90% confluence prior to tumor implantation. All cells were washed 2× with 1×PBS and implanted subcutaneously in a 100 μl volume of 1×PBS in the lower flanks. 1×10^5 MC38 cells, 2×10^5 CT26 cells, 5×10^4 4 T1 cells, and 5×10^6 MCA205-OVA cells were used for tumor induction. Tumors were measured 3×/week until they reached the survival end-point of 144 mm^2. […] Following single cell preparation, cells were washed and resuspended in FACS buffer (1×PBS, 1% BSA, 2 mM EDTA) and counted prior to FACS staining using a Guava EasyCyte cytometer (Millipore). […]

[1] = tested on: peripheral blood CD3^+CD4^−CXCR3^+ T cells; test: HNSCC patients, neoadjuvant anti-PD-1: peripheral blood CXCR3+ T cells; type: in vivo, human; settings: one week after first dose of nivolumab 240 mg IV, FIG. 13B
Protocol: FIGS. 13A-13D are a series of panels showing change in CXCR3^+ cells in response to checkpoint blockade. […] Peripheral blood was drawn at baseline and one week after anti-PD-1 therapy (nivolumab). Surgery was performed at week six for pathologic assessment. […] Patients are grouped by nodal status following neoadjuvant treatment (ypN). FIGS. 13C and 13D show HPV+ patients from FIG. 13B and HPV-patients from FIG. 13B, respectively. Given the low number of patient(s) with residual nodal disease (ypN+), statistics could not be accurately performed in the HPV+ and HPV− subgroups.
Patients with locoregionally advanced HNSCC were treated with anti-PD-1 (nivolumab, 240 mg, IV) three times Q2W. Radiation was administered following the first anti-PD-1 treatment, and surgery was performed at week 6 to assess pathologic status. Patients also received stereotactic body radiation therapy (SBRT) following the first dose of nivolumab. Peripheral blood was drawn at baseline and one week after administration of the first dose of nivolumab. […] As HPV+ and HPV-HNSCC have marked differences in natural history and/or behavior, these cohorts were also analyzed separately (FIGS. 13C and 13D). When comparing response to neoadjuvant therapy in the HPV+ and HPV− cohorts separately, the change in percent CXCR3^+CD3^+CD4^− T cells was more distinct.

Compound	tumor rechallenge outcome (CT26 cells)	tumor rechallenge outcome (4T1 cell line)	tumor cures (animals cured of total) (CT26 tumors; CT26, LY3200882 with chemoradiation (RT/5-FU))	median survival (CT26 tumors; CT26, LY3200882 with chemoradiation, p<0.001 vs RT+5FU)	change in peripheral blood CD3^+CD4^−CXCR3^+ T cells vs nodal status [1]
CC(C)(O)c1cc(Nc2cc(Oc3cn(C4CC4)nc3C3CCOCC3)ccn2)ccn1 [LY3200882]	rejected tumor rechallenge	but not the immunologically distinct 4T1 cell line	6 of 7	not reached	
nivolumab: anti-PD-1 antibody					decrease in CD3^+CD4^−CXCR3^+ T cells following neoadjuvant nivolumab correlated with clearance of nodal disease
